# Results: article PMC7238232, “Acamprosate Is a Substrate of the Human Organic Anion Transporter (OAT) 1 without OAT3 Inhibitory Properties: Implications for Renal Acamprosate Secretion and Drug–Drug Interactions” (Pharmaceutics, 2020)
# Entries after “also recorded” stand apart in the source; their conditions may differ. Like-named read-outs stand apart in the source and are kept apart here.
# Tests used:
# OAT3 [1] = target: T1, OAT3 (Homo sapiens, UniProt Q8TCC7); test: [3H]-E3S uptake and its inhibition in HEK293-Flp-In OAT3 cells; assay type: cell-based
# T1 sequence (Q8TCC7 1-542): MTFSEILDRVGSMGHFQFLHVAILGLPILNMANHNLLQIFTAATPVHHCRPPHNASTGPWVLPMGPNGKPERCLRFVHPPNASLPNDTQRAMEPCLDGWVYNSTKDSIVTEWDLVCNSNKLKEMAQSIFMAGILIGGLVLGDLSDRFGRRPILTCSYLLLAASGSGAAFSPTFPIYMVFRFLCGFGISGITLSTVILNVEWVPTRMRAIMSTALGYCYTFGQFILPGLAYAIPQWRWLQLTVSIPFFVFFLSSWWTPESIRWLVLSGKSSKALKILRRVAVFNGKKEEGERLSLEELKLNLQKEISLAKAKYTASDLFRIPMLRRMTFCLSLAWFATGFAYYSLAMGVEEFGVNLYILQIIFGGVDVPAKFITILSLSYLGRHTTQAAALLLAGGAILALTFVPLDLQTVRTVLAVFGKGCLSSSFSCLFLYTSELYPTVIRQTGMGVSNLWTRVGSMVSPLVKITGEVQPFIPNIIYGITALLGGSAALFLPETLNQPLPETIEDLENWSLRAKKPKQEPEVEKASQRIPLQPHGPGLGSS
# Protocol: All uptake experiments were performed on 24- or 96-well plates. Before the experiment initiation, the cells were incubated with either 500 or 200 µL∙well^−1 prewarmed buffer for 10 min at 37 °C in a microplate incubator (VWR International AB, Stockholm, Sweden), without shaking. […] The experiment was stopped by adding 200 µL∙well^−1 of ice-cold buffer and subsequent rinse three times with the same amount of buffer. In Lab. 1 the sample analysis of the OAT1/OAT3/mock studies consisted in removing the rinsing buffer and lysing the cells with 70 µL 1M NaOH, following by incubation for 60 min at 37 °C and 100 rpm. A total of 50 µL of cell lysate from each well was transferred to 96-well Luma plates bottom coated with dry scintillant. Then, 2∙20 µL of each donor and three 50 µL blank samples were applied on the same plate. The dry plates were covered with transparent seals and analyzed using a TopCount NXT Microplate Scintillation and Luminescence Counter (Perkin Elmer, Waltham, MA, USA). The remaining 20 µL cell lysate was neutralized with 20 µL 1M HCl∙well^−1, samples were mixed thoroughly and the total protein content in all the wells was measured using a BCA protein assay kit, microplate method, and a Tecan Safire II fluorometer (Tecan Austria GmbH, Grödig, Austria). For the experiments in Lab. 2, the cells were lysed by adding 200 µL 0.1% Triton X-100 and incubated for 5 min at 37 °C and 100 rpm. […] The total protein content was measured by using a BCA protein assay kit and a FLUOStar Omega fluorescence microplate reader (BMG Labtech, Ortenberg, Germany). The protein assay for the OAT3 and mock cell lines was performed in four independent wells of each cell line, seeded and treated in the same manner as the cells used in the uptake assay. For all the OAT1, OAT3, and mock isotope uptake studies, the radiolabelled tracer accumulation (pmol) in each well was calculated by first determining the activity of the isotope (DPM∙pmol^−1) from the radioactivity (DPM) of the donor sample divided by the theoretical isotope concentration (pmol), then dividing the total radioactivity in the well (DPM) to the specific activity of the isotope (DPM∙pmol^−1).
# A range of preincubation solutions was prepared at the same concentrations of acamprosate applied in the inhibition assays. Acamprosate was dissolved in HBSS buffered with 10 mM HEPES and the pH was adjusted to 7.40 ± 0.01. The preincubation solutions were prewarmed to 37 °C and applied to the corresponding cells after removing the cell growth medium. The preincubation was done for 3 h, at 37 °C, without shaking. After the preincubation, the solutions were removed, and the inhibition experiment was performed as described in the Section 2.6.
# The obtained intracellular amounts (pmol) were normalized to the assay time (min) and cell surface area (cm^2) or protein amount (mg protein) to obtain a term hereafter referred to as uptake rate. […] Assuming competitive interaction, equilibrium dissociation constants, Ki, were calculated from the IC50 value for each substrate/inhibitor pair, at substrate Km, using the Cheng–Prusoff equation [24].
# OAT3 [2] = target: T1, OAT3; test: Drug-drug interaction (DDI) index calculation, OAT3; conditions: oral and intravenous administration of inhibitor
# From the text: Input values for Cmax,u or C0,u calculated from clinical studies are listed in Appendix B, Table A1.
# [3] = cited from earlier work
# PAT1 = conditions: Caco-2 cells, preliminary data; cited from earlier work
# EAAT1 = conditions: Caco-2 cells, preliminary data; cited from earlier work
# HEK293-Flp-In mock cells = test: Control uptake studies in HEK293-Flp-In mock cells
# Protocol: All uptake experiments were performed on 24- or 96-well plates. Before the experiment initiation, the cells were incubated with either 500 or 200 µL∙well^−1 prewarmed buffer for 10 min at 37 °C in a microplate incubator (VWR International AB, Stockholm, Sweden), without shaking. […] The experiment was stopped by adding 200 µL∙well^−1 of ice-cold buffer and subsequent rinse three times with the same amount of buffer. […] A total of 50 µL of cell lysate from each well was transferred to 96-well Luma plates bottom coated with dry scintillant. Then, 2∙20 µL of each donor and three 50 µL blank samples were applied on the same plate. The dry plates were covered with transparent seals and analyzed using a TopCount NXT Microplate Scintillation and Luminescence Counter (Perkin Elmer, Waltham, MA, USA). The remaining 20 µL cell lysate was neutralized with 20 µL 1M HCl∙well^−1, samples were mixed thoroughly and the total protein content in all the wells was measured using a BCA protein assay kit, microplate method, and a Tecan Safire II fluorometer (Tecan Austria GmbH, Grödig, Austria). […] The total protein content was measured by using a BCA protein assay kit and a FLUOStar Omega fluorescence microplate reader (BMG Labtech, Ortenberg, Germany). The protein assay for the OAT3 and mock cell lines was performed in four independent wells of each cell line, seeded and treated in the same manner as the cells used in the uptake assay. For all the OAT1, OAT3, and mock isotope uptake studies, the radiolabelled tracer accumulation (pmol) in each well was calculated by first determining the activity of the isotope (DPM∙pmol^−1) from the radioactivity (DPM) of the donor sample divided by the theoretical isotope concentration (pmol), then dividing the total radioactivity in the well (DPM) to the specific activity of the isotope (DPM∙pmol^−1).
# HEK293-Flp-In OAT3 cells = test: CellTiter-Glo cell viability assay, OAT3 transfected cells; conditions: up to 3300 µM acamprosate; 3 h
smiles,measurement,setting,value
"CC(=O)NCCCS(=O)(=O)O [acamprosate, acetylhomotaurinate]",IC50,OAT3 [1],> 10 mM
same,effect on uptake of [3H]-E3S in OAT3 expressing cells,"OAT3 [1]; 0.02 µM [3H]-E3S, 200 µM E3S, 300 µM probenecid, 1000 or 10,000 µM acamprosate, Lab. 2",did not affect
same,"inhibition of [3H]-E3S uptake via OAT3, with and without 3 h preincubation","OAT3 [1]; all applied acamprosate concentrations, up to 10 mM",lack of inhibitory effect; also recorded: did not inhibit
same,IC50,"OAT3 [1]; read-out: IC50, Estrone-3-Sulfate, input for DDI index, Table A1",> 10 mM
same,"DDI index, substrate E3S",OAT3 [2],"<<0.02 ^a, b"
same,Cmax,"[3]; acamprosate, IV bolus, 333 mg",153 ± 38 µM
same,Cmax,"[3]; acamprosate, IV bolus, 666 mg",214 ± 10 µM
same,Cmax,"[3]; acamprosate, IV bolus, 710 mg",230 ± 64 µM
same,Cmax,"[3]; acamprosate, IV bolus, 1420 mg",486 ± 106 µM
same,Cmax,"[3]; acamprosate, IV bolus, 2130 mg",768 ± 149 µM
same,"fu, fraction unbound in plasma","[3]; acamprosate, all doses and routes of Table A1",1 [5]
same,Cmax,"[3]; acamprosate, oral solution, 333 mg",1.8 ± 0.8 µM
same,Cmax,"[3]; acamprosate, oral solution, 666 mg",4.3 ± 1.4 µM
same,Cmax,"[3]; acamprosate, oral solution, 1332 mg",5 ± 1.7 µM
same,Cmax,"[3]; acamprosate, oral solution, 2664 mg",8.6 ± 4.1 µM
same,Cmax,"[3]; acamprosate, oral tablet, 666 mg",1.4 ± 1.1 µM
same,Cmax,"[3]; acamprosate, oral tablet, 1332 mg",1.5 ± 0.1 µM
same,plasma levels,"[3]; administered orally, humans",1 to 9 µM
same,metabolism in humans,[3],not metabolized
same,share of the eliminated dose accounted for by renal clearance (CLR),[3],> 95%
same,renal clearance (CLR) of unbound acamprosate,[3]; healthy adults,13.4 to 23.4 L/h
same,fu (plasma protein binding),[3]; humans,1
same,"initial unbound plasma concentration (C0,u)","[3]; intravenous (bolus), doses of 333–2130 mg",154 to 768 µM
same,"unbound steady-state plasma concentration (Cmax,u)","[3]; oral, doses of 333–2130 mg",2 to 5 µM
same,inhibition of substrate transport via PAT1,PAT1,did not inhibit
same,inhibition of substrate transport via EAAT1,EAAT1,did not inhibit
same,effect on uptake of [3H]-E3S in mock cells,"HEK293-Flp-In mock cells; 0.02 µM [3H]-E3S, 200 µM E3S, 300 µM or 0.2–1022 µM probenecid, 10,000 µM acamprosate, Lab. 2",did not affect
same,effect on uptake of [14C]-PAH in mock cells,"HEK293-Flp-In mock cells; 9.5 µM [14C]-PAH, 200 µM PAH, 300 µM or 0.02–1022 µM probenecid, acamprosate, Lab. 1",did not inhibit
same,saturability of dose-dependent substrate uptake in mock cells,"HEK293-Flp-In mock cells; same substrate concentrations as in transfected cells, acamprosate 0.33–3300 µM",not saturable
same,decrease in cell viability,HEK293-Flp-In OAT3 cells,≤ 10%
